Results as given in US20240391904A1, “DIHYDROPYRIMIDINE BASED COMPOUND, PREPARATION METHOD THEREFOR AND USE OF THEREOF” (CHENGDU SHIBEIKANG BIOMEDICAL TECHNOLOGY CO., LTD., priority 2021, published 2024).
Marks after values point to notes of the source that are not given here.

How the values were obtained:
human P2X3 receptor = target: T1, human P2X3 receptor (Homo sapiens, UniProt P56373); assay: In vitro bioactivity evaluation: FLIPR antagonist mode, HEK 293 cells stably transfected with human P2X3 receptor, BZATP agonist
T1 sequence (P56373 1-397): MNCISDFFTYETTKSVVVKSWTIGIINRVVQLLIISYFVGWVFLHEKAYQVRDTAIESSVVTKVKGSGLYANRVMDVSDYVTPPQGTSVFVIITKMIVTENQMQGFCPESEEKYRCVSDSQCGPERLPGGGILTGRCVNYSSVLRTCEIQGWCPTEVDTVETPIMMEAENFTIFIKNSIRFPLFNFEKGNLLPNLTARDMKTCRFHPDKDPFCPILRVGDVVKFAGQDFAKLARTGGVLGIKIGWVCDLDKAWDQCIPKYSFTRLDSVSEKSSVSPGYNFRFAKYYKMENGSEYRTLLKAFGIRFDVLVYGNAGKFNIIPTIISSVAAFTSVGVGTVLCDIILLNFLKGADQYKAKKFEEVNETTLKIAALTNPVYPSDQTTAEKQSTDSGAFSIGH
Procedure: Cell culture medium: DMEM high glucose; 10% FBS; 1% PenStrep.
The Petri dish was placed in an incubator for 1-3 minutes or until the cells were digested, 3 mL of a complete medium was then added to terminate the digestion, and the cell density was determined by a cell counter. • 2) After centrifugation at 1000 rpm/min for 5 min, the cells were resuspended in a growth medium and the volume of the suspension was adjusted to reach a cell density of 4×10^5 cells/mL (1×10^4 cells/25 μL). • 3) 10 μL of 5× Matrigel was added into a black microplate, and the microplate was placed in an incubator for 15 min. The microplate was removed and invertedly centrifuged at 300 g/min for 30 s to remove the 5× Matrigel.

KM mice = assay: Mouse cough test (ammonia-induced coughing); assay type: in vivo; details: for Number of Coughs (time): mice; for reduction in the number of coughs at 3 mg/kg: compared with model group; for duration of the cough suppression action: 30 to 120 min after administration
Excerpt: Compounds of Example 1-24 (synthesized in the inventor's laboratory), positive control drug (gefapixant, batch No: 01030-210326-2-1, purchased from Holder Pharmaceuticals), the compound of Comparative Example 1 (synthesized in the inventor's laboratory).
Healthy adult KM mice, half of them are male and half of them are female, 6 per group, weighing about 28-30 g.
Most of the animal coughing models currently reported in the literatures use mechanical, chemical and electrical stimulations to stimulate the nerves and receptors of the animals to trigger coughing. According to the characteristics of the candidate compounds and the existing similar target compounds for reference, the method of concentrated ammonia induction was initially chosen to establish the cough modeling test in mice.
Preparation of 50% ammonia solution: 2.5 ml of ammonia was dissolved in […] of a 0.9% sodium chloride solution for injection and mixed evenly.
Preparation of a solution of the compound of Comparative Example 1: 9 mg of the compound of Comparative Example 1 was weighed and dissolved in 3 ml of a 0.5% CMC-Na solution, and mixed evenly to prepare a 3 mg/ml solution.
Preparation of a solution of the example compounds: 9 mg of the example compound was weighed and dissolved in 3 ml of a 0.5% CMC-Na solution, and mixed evenly to prepare a 3 mg/ml solution.
Grouping: a positive control group, a Comparative Example 1 group, Example 1 group-Example 24 group, and a model group were set up. Six KM mice were taken from each group and administered by gavage; here, the Comparative Example 1 group was given the compound of Comparative Example 1, the positive control group was given the positive control drug (gefapixant, commercially purchased), the Example groups were given the compounds prepared in the corresponding Examples, with each group given one of three dosages: 30 mg/kg, […], and 3 mg/kg; and the model group was given the same volume of 0.5% CMC-Na solution.
30 min, 60 min or 120 min after administration, the mice were placed in a 500 ml beaker with a cotton ball (weight 100±5 mg) containing 0.3 ml of 50% ammonia.
(1) Judgment criteria of coughing: coughing was manifest in contraction of abdominal muscles or chest contraction, with mouth wide opening and a coughing sound.
(2) The number of coughs (times) within 3 min was recorded with a stopwatch, and the data were statistically analyzed by software, with the data in each group shown in mean±standard deviation. A one-way analysis of variance among the groups was conducted, and P<0.05 was considered a difference having a statistical significance.

[1] = 30 mg/kg by gavage, 30 min after administration, coughs within 3 min, ammonia-induced
[2] = 30 mg/kg, 30 min after administration
[3] = 3 mg/kg by gavage, 60 min after administration, coughs within 3 min
[4] = 10 mg/kg by gavage, 60 min after administration, coughs within 3 min
[5] = 30 mg/kg by gavage, 60 min after administration, coughs within 3 min (Table 5)
[6] = 30 mg/kg by gavage, 60 min after administration, coughs within 3 min (Table 6)
[7] = 30 mg/kg by gavage, 120 min after administration, coughs within 3 min

IC50 (human P2X3 receptor)	Structure (SMILES)	Number of Coughs (time) (KM mice; [1])	cough suppressing effect compared with the positive compound (KM mice; [2])	also measured
50.1 to 100 nM	C[C@@H](Cn1c(=O)cc(Nc2ccc(Oc3ccccc3)cc2)n(Cc2ccc(Cl)cc2)c1=O)C(=O)NS(C)(=O)=O [Compound 23]	34.67 time	–	–
10.1 to 50 nM	COC(=O)C(C)(C)Cn1c(=O)cc(Nc2ccc(Oc3ccccn3)cc2)n(Cc2ccc(Cl)cc2)c1=O [Compound 11]	31.00 time	–	–
< 10 nM	C[C@@H](Cn1c(=O)cc(Nc2ccc(Oc3ccccn3)cc2)n(Cc2ccc(Cl)cc2)c1=O)C(=O)O [Compound 7]	15.20** time	stronger than that of the positive compound	reduction in the number of coughs at 3 mg/kg (KM mice; 60 min after administration): statistically significant (P<0.01) reduction in the number of coughs; cough suppressing efficacy at 10 mg/kg (KM mice; 60 min after administration): improved cough suppressing efficacy than the positive control drug; Number of Coughs (time) (KM mice; [3]): 23.34** time; Number of Coughs (time) (KM mice; [4]): 20.83**^Δ time; Number of Coughs (time) (KM mice; [5]): 15.00** time; Number of Coughs (time) (KM mice; [6]): 15.00** time; Number of Coughs (time) (KM mice; [7]): 38.13 time
–	C[C@@H](Cn1c(=O)cc(Nc2ccc(Oc3ccc(OC(F)(F)F)cn3)cc2)n(Cc2ccc(Cl)cc2)c1=O)C(=O)NS(C)(=O)=O [Compound 19, (S)-3-(3-(4-chlorobenzyl)-2,6-dioxo-4-(4-(5-((5-trifluoromethoxy)pyridin-2-yl)oxyphenyl)amino)-3,6-dihydropyrimidin-1(2H)-yl)-2-methyl-N-(sulfonyl)propionamide group]	17.62** time	stronger than that of the positive compound	–
–	CC(C)(Cn1c(=O)cc(Nc2ccc(Oc3cnccn3)cc2)n(Cc2ccc(Cl)cc2)c1=O)C(=O)O [Compound 5]	33.67 time	–	–
10.1 to 50 nM	COC(=O)C1(Cn2c(=O)cc(Nc3ccc(Oc4ccccn4)cc3)n(Cc3ccc(Cl)cc3)c2=O)CC1 [Compound 14]	32.17 time	–	–
< 10 nM	CC(C)(Cn1c(=O)cc(Nc2ccc(Oc3ccccn3)cc2)n(Cc2ccc(Cl)cc2)c1=O)C(=O)O [Compound 10]	17.20** time	stronger than that of the positive compound	duration of the cough suppression action (KM mice; 30 mg/kg): short duration of action; cough suppressing effect at 60 min (KM mice; 30 mg/kg, 60 min after administration): no cough suppressing effect at 60 min; Number of Coughs (time) (KM mice; [5]): 40.17 time
10.1 to 50 nM	C[C@@H](Cn1c(=O)cc(Nc2ccc(Oc3ccc(OC(F)F)cn3)cc2)n(Cc2ccc(Cl)cc2)c1=O)C(=O)NS(C)(=O)=O [Compound 20, (S)-3-(3-(4-chlorobenzyl)-2,6-dioxo-4-(4-(5-((5-difluoromethoxy)pyridin-2-yl)oxyphenyl)amino)-3,6-dihydropyrimidin-1(2H)-yl)-2-methyl-N-(sulfonyl)propionamide group]	15.17** time	stronger than that of the positive compound	–
10.1 to 50 nM	CC(C)(Cn1c(=O)cc(Nc2ccc(Oc3cnccn3)cc2)n(Cc2ccc(Cl)cc2)c1=O)C(=O)NS(C)(=O)=O [Compound 6]	17.81** time	stronger than that of the positive compound	–
10.1 to 50 nM	O=C(O)C1(Cn2c(=O)cc(Nc3ccc(Oc4ccccn4)cc3)n(Cc3ccc(Cl)cc3)c2=O)CC1 [Compound 13]	25.60 time	–	–
10.1 to 50 nM	C[C@@H](Cn1c(=O)cc(Nc2ccc(Oc3ncccc3F)cc2)n(Cc2ccc(Cl)cc2)c1=O)C(=O)O [Comparative Example 1, reference compound]	25.61* time	–	cough suppressing effect at 120 min (KM mice; 30 mg/kg, 120 min after administration): did not have a significant cough suppressing effect at 120 min; Number of Coughs (time) (KM mice; [6]): 24.12** time; Number of Coughs (time) (KM mice; [7]): 44.17 time
–	C[C@@H](Cn1c(=O)cc(Nc2ccc(Oc3ccccn3)cc2)n(Cc2ccc(C(F)(F)F)cc2)c1=O)C(=O)NS(C)(=O)=O [Compound 18]	20.57** time	–	–
–	C[C@@H](Cn1c(=O)cc(Nc2ccc(Oc3cnccn3)cc2)n(Cc2ccc(Cl)cc2)c1=O)C(=O)O [Compound 2]	27.67* time	–	–
< 10 nM	COC(=O)C(C)(C)Cn1c(=O)cc(Nc2ccc(Oc3cnccn3)cc2)n(Cc2ccc(Cl)cc2)c1=O [Compound 4]	15.61** time	stronger than that of the positive compound	–
–	C[C@@H](Cn1c(=O)cc(Nc2ccc(Oc3ccc(Cl)cn3)cc2)n(Cc2ccc(Cl)cc2)c1=O)C(=O)NS(C)(=O)=O [Compound 21]	18.83** time	–	–
10.1 to 50 nM	COC(=O)[C@@H](C)Cn1c(=O)cc(Nc2ccc(Oc3ccccn3)cc2)n(Cc2ccc(Cl)cc2)c1=O [Compound 8]	25.00* time	–	Number of Coughs (time) (KM mice; [5]): 27.33* time
10.1 to 50 nM	C[C@@H](Cn1c(=O)cc(Nc2ccc(Oc3cnccn3)cc2)n(Cc2ccc(Cl)cc2)c1=O)C(=O)NS(C)(=O)=O [Compound 3]	16.21** time	stronger than that of the positive compound	reduction in the number of coughs at 3 mg/kg (KM mice; 60 min after administration): statistically significant (P<0.01) reduction in the number of coughs; cough suppressing efficacy at 10 mg/kg (KM mice; 60 min after administration): improved cough suppressing efficacy than the positive control drug; duration of the cough suppression action (KM mice; 30 mg/kg): significantly prolonged compared with that of the compound of Comparative Example 1; Number of Coughs (time) (KM mice; [3]): 21.14** time; Number of Coughs (time) (KM mice; [4]): 19.83**^Δ time; Number of Coughs (time) (KM mice; [5]): 16.02** time; Number of Coughs (time) (KM mice; [6]): 16.02** time; Number of Coughs (time) (KM mice; [7]): 15.13**^Δ time
50.1 to 100 nM	C[C@@H](Cn1c(=O)cc(Nc2ccc(Oc3ncccn3)cc2)n(Cc2ccc(Cl)cc2)c1=O)C(=O)NS(C)(=O)=O [Compound 22]	35.61 time	–	–
